ChEMBL document CHEMBL3272117, “Synthesis of 1-(4-thio-beta-D-ribofuranosyl)-1,2,4-triazole-3-carboxamide” (J Med Chem, 1976)
The source made the active and inactive calls. No cut-off for these calls is given here.

Experiments:
KB = experiment: Antiviral activity against Rhinovirus type 13 infected in human KB cells; format: functional, cell-based; conditions: Human rhinovirus A13
Human respirovirus 3 = experiment: Antiviral activity against Parainfluenza virus type 3 infected in human KB cells; format: functional, organism-based
Human alphaherpesvirus 1 = experiment: Antiviral activity against Herpes simplex virus type 1 infected in human KB cells; format: functional, organism-based

| SMILES | Activity (KB) | Activity (Human respirovirus 3) | Activity (Human alphaherpesvirus 1) |
| --- | --- | --- | --- |
| NC(=O)c1ncn([C@@H]2O[C@H](CO)[C@@H](O)[C@H]2O)n1 | Active | Active | Active |
| NC(=O)c1ncn([C@@H]2S[C@H](CO)[C@@H](O)[C@H]2O)n1 |  |  | Active |
